Test results: patent publication US7968526B2, “Antisense oligonucleotides directed to ribonucleotide reductase R2 and uses thereof in the treatment of cancer” (Lorus Therapeutics Inc., priority 2003, dated 2011)

Experiment: Tissue distribution in the rat (CE method)
Type: in vivo
Description: The toxicokinetics and tissue distribution of SEQ ID NO:1 (and related oligonucleotide metabolites obtained from exonuclease-mediated chain shortening) were determined in rats and monkeys. In addition to investigating the pharmacokinetics and tissue distribution of SEQ ID NO:1, the purpose of the studies was to correlate adverse effects in the animal studies to the concentrations of SEQ ID NO:1 (and metabolites) in tissue and blood. A capillary electrophoresis (CE) method was used to measure the concentrations of SEQ ID NO:1 (and metabolites) in plasma and tissues.
The concentrations of SEQ ID NO:1 (and related n+1, n−1 to n−15 oligonucleotide metabolites) in the following rat and monkey tissues were measured by a validated CE method (Southwest Bio-Labs, Inc.): kidney, liver, spleen, heart, lung, bone marrow (rat), lymph nodes (monkey) and brain tissues. The tissue samples were collected from the designated animals as described in the 21-day toxicity studies: rats, administered bolus intravenous injections of SEQ ID NO:1 every other day at 2, 10, or 50 mg/kg; and monkeys administered SEQ ID NO:1 by continuous intravenous infusion at 2, 10, or 50 mg/kg/day.

[1] = 2 mg/kg bolus i.v. every other day, 4 hrs post first dose
[2] = 2 mg/kg bolus i.v. every other day, 4 hrs post last dose
[3] = 2 mg/kg bolus i.v. every other day, 48 hrs post first dose
[4] = 10 mg/kg bolus i.v. every other day, 4 hrs post first dose
[5] = 10 mg/kg bolus i.v. every other day, 4 hrs post last dose

5′-GGCTAAATCGCTCCACCAAG-3′ (all phosphorothioate, sugars by position and methylation of C not given here) [SEQ ID NO: 1, fully phosphorothioated antisense oligonucleotide that hybridizes to the coding region of R2 mRNA]
Rank order of tissue concentrations: kidney>liver>bone marrow>spleen>heart>lung | Mean Concentration SEQ ID NO: 1, Bone Marrow [1]: BDL (below detectable limits (1 μg/g rat; 0.2 μg/g monkey)) | Mean Concentration SEQ ID NO: 1, Brain [1]: BDL (below detectable limits (1 μg/g rat; 0.2 μg/g monkey)) | Mean Concentration SEQ ID NO: 1, Heart [1]: 0.8 µg/g | Mean Concentration SEQ ID NO: 1, Kidney [1]: 6.7 µg/g | Mean Concentration SEQ ID NO: 1, Liver [1]: 6.9 µg/g | Mean Concentration SEQ ID NO: 1, Lung [1]: BDL (below detectable limits (1 μg/g rat; 0.2 μg/g monkey)) | Mean Concentration SEQ ID NO: 1, Spleen [1]: 1.0 µg/g | Mean Concentration total metabolites (n + 1 through n − 13), Bone Marrow [1]: BDL (below detectable limits (1 μg/g rat; 0.2 μg/g monkey)) | Mean Concentration total metabolites (n + 1 through n − 13), Brain [1]: BDL (below detectable limits (1 μg/g rat; 0.2 μg/g monkey)) | Mean Concentration total metabolites (n + 1 through n − 13), Heart [1]: 0.3 µg/g | Mean Concentration total metabolites (n + 1 through n − 13), Kidney [1]: 20.8 µg/g | Mean Concentration total metabolites (n + 1 through n − 13), Liver [1]: 16.9 µg/g | Mean Concentration total metabolites (n + 1 through n − 13), Lung [1]: BDL (below detectable limits (1 μg/g rat; 0.2 μg/g monkey)) | Mean Concentration total metabolites (n + 1 through n − 13), Spleen [1]: 1.2 µg/g | Mean Concentration SEQ ID NO: 1, Bone Marrow [2]: 1.8 µg/g | Mean Concentration SEQ ID NO: 1, Brain [2]: BDL (below detectable limits (1 μg/g rat; 0.2 μg/g monkey)) | Mean Concentration SEQ ID NO: 1, Heart [2]: BDL (below detectable limits (1 μg/g rat; 0.2 μg/g monkey)) | Mean Concentration SEQ ID NO: 1, Kidney [2]: 28.0 µg/g | Mean Concentration SEQ ID NO: 1, Liver [2]: 13.8 µg/g | Mean Concentration SEQ ID NO: 1, Lung [2]: 0.9 µg/g | Mean Concentration SEQ ID NO: 1, Spleen [2]: 1.8 µg/g | Mean Concentration total metabolites (n + 1 through n − 13), Bone Marrow [2]: 3.8 µg/g | Mean Concentration total metabolites (n + 1 through n − 13), Brain [2]: BDL (below detectable limits (1 μg/g rat; 0.2 μg/g monkey)) | Mean Concentration total metabolites (n + 1 through n − 13), Heart [2]: BDL (below detectable limits (1 μg/g rat; 0.2 μg/g monkey)) | Mean Concentration total metabolites (n + 1 through n − 13), Kidney [2]: 122.8 µg/g | Mean Concentration total metabolites (n + 1 through n − 13), Liver [2]: 42.1 µg/g | Mean Concentration total metabolites (n + 1 through n − 13), Lung [2]: 0.2 µg/g | Mean Concentration total metabolites (n + 1 through n − 13), Spleen [2]: 6.5 µg/g | Mean Concentration SEQ ID NO: 1, Bone Marrow [3]: BDL (below detectable limits (1 μg/g rat; 0.2 μg/g monkey)) | Mean Concentration SEQ ID NO: 1, Brain [3]: BDL (below detectable limits (1 μg/g rat; 0.2 μg/g monkey)) | Mean Concentration SEQ ID NO: 1, Heart [3]: BDL (below detectable limits (1 μg/g rat; 0.2 μg/g monkey)) | Mean Concentration SEQ ID NO: 1, Kidney [3]: 1.0 µg/g | Mean Concentration SEQ ID NO: 1, Liver [3]: BDL (below detectable limits (1 μg/g rat; 0.2 μg/g monkey)) | Mean Concentration SEQ ID NO: 1, Lung [3]: BDL (below detectable limits (1 μg/g rat; 0.2 μg/g monkey)) | Mean Concentration SEQ ID NO: 1, Spleen [3]: BDL (below detectable limits (1 μg/g rat; 0.2 μg/g monkey)) | Mean Concentration total metabolites (n + 1 through n − 13), Bone Marrow [3]: BDL (below detectable limits (1 μg/g rat; 0.2 μg/g monkey)) | Mean Concentration total metabolites (n + 1 through n − 13), Brain [3]: BDL (below detectable limits (1 μg/g rat; 0.2 μg/g monkey)) | Mean Concentration total metabolites (n + 1 through n − 13), Heart [3]: BDL (below detectable limits (1 μg/g rat; 0.2 μg/g monkey)) | Mean Concentration total metabolites (n + 1 through n − 13), Kidney [3]: 3.6 µg/g | Mean Concentration total metabolites (n + 1 through n − 13), Liver [3]: BDL (below detectable limits (1 μg/g rat; 0.2 μg/g monkey)) | Mean Concentration total metabolites (n + 1 through n − 13), Lung [3]: BDL (below detectable limits (1 μg/g rat; 0.2 μg/g monkey)) | Mean Concentration total metabolites (n + 1 through n − 13), Spleen [3]: BDL (below detectable limits (1 μg/g rat; 0.2 μg/g monkey)) | Mean Concentration SEQ ID NO: 1, Bone Marrow [4]: 2.7 µg/g | Mean Concentration SEQ ID NO: 1, Brain [4]: BDL (below detectable limits (1 μg/g rat; 0.2 μg/g monkey)) | Mean Concentration SEQ ID NO: 1, Heart [4]: 1.5 µg/g | Mean Concentration SEQ ID NO: 1, Kidney [4]: 31.1 µg/g | Mean Concentration SEQ ID NO: 1, Liver [4]: 19.7 µg/g | Mean Concentration SEQ ID NO: 1, Lung [4]: 1.6 µg/g | Mean Concentration SEQ ID NO: 1, Spleen [4]: 2.6 µg/g | Mean Concentration total metabolites (n + 1 through n − 13), Bone Marrow [4]: 3.5 µg/g | Mean Concentration total metabolites (n + 1 through n − 13), Brain [4]: BDL (below detectable limits (1 μg/g rat; 0.2 μg/g monkey)) | Mean Concentration total metabolites (n + 1 through n − 13), Heart [4]: 4.2 µg/g | Mean Concentration total metabolites (n + 1 through n − 13), Kidney [4]: 88.1 µg/g | Mean Concentration total metabolites (n + 1 through n − 13), Liver [4]: 47.9 µg/g | Mean Concentration total metabolites (n + 1 through n − 13), Lung [4]: 2.3 µg/g | Mean Concentration total metabolites (n + 1 through n − 13), Spleen [4]: 7.8 µg/g | Mean Concentration SEQ ID NO: 1, Bone Marrow [5]: 3.6 µg/g | Mean Concentration SEQ ID NO: 1, Brain [5]: BDL (below detectable limits (1 μg/g rat; 0.2 μg/g monkey)) | Mean Concentration SEQ ID NO: 1, Heart [5]: BDL (below detectable limits (1 μg/g rat; 0.2 μg/g monkey)) | Mean Concentration SEQ ID NO: 1, Kidney [5]: 129.5 µg/g | Mean Concentration SEQ ID NO: 1, Liver [5]: 38.1 µg/g | Mean Concentration SEQ ID NO: 1, Lung [5]: 2.1 µg/g | Mean Concentration SEQ ID NO: 1, Spleen [5]: 3.2 µg/g | Mean Concentration total metabolites (n + 1 through n − 13), Bone Marrow [5]: 6.6 µg/g | Mean Concentration total metabolites (n + 1 through n − 13), Brain [5]: BDL (below detectable limits (1 μg/g rat; 0.2 μg/g monkey)) | Mean Concentration total metabolites (n + 1 through n − 13), Heart [5]: 9.4 µg/g | Mean Concentration total metabolites (n + 1 through n − 13), Kidney [5]: 613.5 µg/g | Mean Concentration total metabolites (n + 1 through n − 13), Liver [5]: 105.9 µg/g | Mean Concentration total metabolites (n + 1 through n − 13), Lung [5]: 3.3 µg/g
